# Patent US11813277B2, “Methods and agents for modulating inflammation” (The Regents of the University of California, priority 2018, dated 2023)
# Key:
# diet-induced NASH = assay: Rat model of diet-induced NASH; format: in vivo
# [1] = system: M(IL-4) polarization of BMDMs; assay: Flow cytometry of IL-4-associated cell surface markers in BMDMs; format: cell-based, mouse
# Experimental: (§1) For all gene expression and flow cytometry experiments described below, day 6 BMDM were plated at 3×10^5 cell/well in 12-well plates. The next day, cells were treated with appropriate compounds (and duration as indicated in figures and below) in DMEM supplemented with 5% FBS, 2 mM L-glutamine, 100 units/mL, 100 μg/mL penicillin/streptomycin, 500 μM of sodium pyruvate and 5% v/v conditioned media containing macrophage colony stimulating factor (M-CSF).
# (§2) For flow cytometry experiments involving etomoxir (FIG. 1G, FIG. 2A, FIG. 2D, FIG. 3A, FIG. 3B, FIG. 3G, FIG. 3H): BMDMs were mock-treated (media replacement only) or treated with 20 ng/mL of IL-4±3 μM or 200 μM of etomoxir for 48 hr. When measuring expression of M(IL-4)-associated genes in response to etomoxir (FIG. 1H, FIG. 2B), BMDMs were mock-treated or treated with 20 ng/mL of IL4±etomoxir as indicated for 24 hr.
# (§3) For experiments involving respiratory chain inhibitors: BMDMs were mock-treated (media replacement only) or treated with 20 ng/mL of IL4±1.2 μM oligomycin (Oligo), 200 nM rotenone (Rot), 200 nM antimycin A (AntiA), 100 nM piericidin A (PierA), or 5 μM carboxyatractylate (CAT) for either 24 (FIG. 4G, FIG. 4H, FIG. 6G) or 48 hr (FIG. 4F, FIG. 7D). All inhibitors were given as co-treatments simultaneously with IL-4.
# For experiments involving CoA supplementation (FIG. 10A, FIG. 10B, FIG. 10C, FIG. 10D, FIG. 10E, FIG. 9C, FIG. 9D): BMDMs were mock-treated (media replacement only) or treated with 20 ng/mL of IL4±etomoxir (concentration indicated in figures)±CoA (concentration indicated in figures) for 48 hr. Etomoxir and CoA were given as co-treatments simultaneously with IL-4.
# Prior to FACS analysis, BMDMs were detached using 350 μL of Accutase, followed by two washes with FACS buffer (PBS+1% (v/v) BSA+0.05% (w/v) sodium azide). Anti-mouse CD16/32 antibody was used at a dilution of 1:500, while all other antibodies were used at a dilution of 1:250. All flow cytometry data were captured using BD FACSVerse flow cytometer and analyzed using the FlowJo X 10.0.7r2 software. In all, 2×104 live events were acquired for each sample (gated on DAPIneg). For analysis, CD206+/CD71+ and CD206+/CD301+ populations were gated based on Fluorescence Minus One (FMO) controls.
# BMDMs [2] = assay: Intracellular free coenzyme A levels in BMDMs; format: cell-based, mouse; conditions: IL-4
# Experimental: On Day 6 of differentiation, BMDMs were seeded at 1.2×10^6 cells/well in 6-well plates. 24 hr later, BMDMs were mock-treated or co-treated with 20 ng/mL IL-4±200 μM etomoxir±500 μM CoA in DMEM supplemented with 5% FBS, 2 mM L-glutamine, 100 units/mL, […] penicillin/streptomycin, 500 μM of sodium pyruvate and 5% v/v conditioned media containing macrophage colony stimulating factor (M-CSF) for 20 hr. Prior to sample collections, cells were washed with 600 μL of 0.9% (w/v) NaCl twice. Three wells per replicate per treatment were combined in 2 mL centrifuge tubes and centrifuged at 500 g for 5 mins at 4° C. The supernatant was removed, and the cell pellet was re-suspended in 75 μL of ice-cold 0.7% (v/v) perchloric acid for 5 min. Samples were then centrifuged at 10,000 g for 7 mins at 4° C. and the resulting supernatant was adjusted to pH 7 with 2M NaOH and 500 mM K2HPO4. The coenzyme A concentration was determined with Coenzyme A Assay Kit following manufacturer's instructions (Sigma MAK034) using 40 μL of sample supernatant. Coenzyme A levels were normalized to total cellular protein (BCA method).
# acute liver injury = assay: Murine acute liver injury model; format: in vivo
# Limonoids sigmodontis = assay: Murine model of nematode infection; conditions: mouse, in vivo
# BMDMs [3] = assay: Basal mitochondrial respiration in intact BMDMs; format: cell-based, mouse
# Experimental: All respirometry studies were conducted in either a Seahorse XF96 or XFe96 Analyzer. All experiments were conducted at 37° C., and at pH 7.4 (intact cells) or 7.2 (permeabilized cells and isolated mitochondria). Calculation of respiratory parameters was made according to standard protocols (Divakaruni, A. S., Paradyse, A., Ferrick, D. A., Murphy, A. N., and Jastroch, M. (2014a) Analysis and interpretation of microplate-based oxygen consumption and pH data. Meth. Enzym 547, 509-54), and all rates were corrected for non-mitochondrial respiration/background signal by subtracting the oxygen consumption rate insensitive to rotenone plus antimycin A.
# Respiration in intact BMDMs was measured in medium containing 8 mM glucose, 2 mM glutamine, 2 mM pyruvate, and 5 mM HEPES. Cells were plated at 5.0×10^4 cells/well and assayed after 48 hr. When measuring the response to IL-4, cells were treated with 20 ng/mL of IL-4 24 hr. after initial plating, and respiration was measured the following day (˜48 hr after initial seeding). […]
# LCFA oxidation in BMDMs = assay: 9,10-3H-palmitate oxidation (3H2O release) in BMDMs; format: cell-based, mouse; conditions: 200 nM rotenone or 200 nM antimycin A, IL-4-stimulated
# Experimental: BMDMs at day 6 of differentiation were seeded at 3×10^5 cells/well in 12 well plates in BMDM media. The next day, cells were treated in DMEM containing 25 mM glucose supplemented with 5% FBS, 2 mM L-Glutamax, 100 units/mL, 100 μg/mL penicillin/streptomycin, 1 mM of sodium pyruvate, 1 mM carnitine, and 5% v/v conditioned media containing macrophage colony stimulating factor (M-CSF) under one of 5 conditions: control, 20 ng/mL of IL-4±3 μM or 200 μM of etomoxir, or 200 nM rotenone, or 200 nM antimycin A for 24 hr. Fatty acid oxidation was measured 24 hours later as previously described (Rognstad, R. (1991) Estimation of peroxisomal and mitochondrial fatty acid oxidation in rat hepatocytes using tritiated substrates. Biochem J 279:147-150, 1991; Cha, B. S., Ciaraldi, T. P., Park, K. S., Carter, L., Mudaliar, S. R., and Henry R R. (2005) Impaired fatty acid metabolism in type 2 diabetic skeletal muscle cells is reversed by PPARgamma agonists. Am J Physiol Endocrinol Metab. 289, E151-9) following a fluid change to DMEM with components as described above except 10 mM glucose and 0.2 μCi (final concentration of 5 μM) BSA-conjugated [9,10-3H]palmitic acid. No additional IL-4 was added at the time of this fluid change, but etomoxir, rotenone and antimycin A were added, and the plates were placed in a […] incubator at 37° C. for 3 hr. After incubation, a 100 μL aliquot of the culture medium was passed over an ion-exchange resin, and the column was washed twice with 0.75 ml of water. Free fatty acids were retained by the resin, whereas the tritium hydrolyzed from radiolabeled palmitate catabolism was released as labeled water, which passes freely through the resin, and is subsequently counted for radioactivity. All data are corrected for protein content in each well. There were 3 technical replicates for each condition, and 4 biological replicates arising from 4 separate animals.
# BMDMs [4] = assay: Cellular ATP production rates from respirometry and lactate assay; format: cell-based, mouse; conditions: 200 nM rotenone, IL-4 24 hr
# Experimental: Respiration in intact BMDMs was measured in medium containing 8 mM glucose, 2 mM glutamine, 2 mM pyruvate, and 5 mM HEPES. Cells were plated at 5.0×10^4 cells/well and assayed after 48 hr. When measuring the response to IL-4, cells were treated with 20 ng/mL of IL-4 24 hr. after initial plating, and respiration was measured the following day (˜48 hr after initial seeding). Respiration was measured in response to oligomycin (1 μM), FCCP (1.2 μM), and rotenone (0.2 μM) with antimycin A (1 μM).
# Under conditions matching intact cell respirometry for BMDMs, the extracellular medium was harvested and lactate was analyzed as previously described (Mookerjee, S. A., Goncalves, R. L., Gerencser, A. A., Nicholls, D. G., and Brand, M. D. (2015). The contributions of respiration and glycolysis to extracellular acid production. Biochim et Biophys Acta. 1847, 171-81; Divakaruni, A. S., Wallace, M., Buren, C., Martyniuk, K., Andreyev, A. Y., Li, E., Fields, J. A., Cordes, T., Reynolds, I. J., Bloodgood, B. L., et al., (2017b) Inhibition of the mitochondrial pyruvate carrier protects from excitotoxic neuronal death. J. Cell Biol. 216, 1091-1105). […] The reaction velocity was measured after 2 min (340/460 nm excitation/emission). […]
# [5] = system: Relma, Mgl2, Ym1, Fabp4, Arg1 expression; assay: qPCR of IL-4-associated genes in BMDMs; format: cell-based, mouse; conditions: IL-4, 24 hr
# Experimental: as §1, §2, §3
# RNA was isolated with TRIzol, then cDNA was synthesized with high-capacity cDNA reverse transcription kit. KAPA SYBR FAST qPCR Master Mix kit and a LightCycler 480 were used for quantitative RT-PCR. Fold change related to the control group was calculated using […] with 36b4 as the reference gene.
# [6] = 500 μM CoA, absence of etomoxir
smiles,measurement,setting,value
CC(CNC(=O)[C@H](O)C(C)(C)CO)C(=O)NCCc1ccccc1 (stereo partly drawn) [alpha-methyl-N-phenethyl-pantothenamide],expression of alternative macrophage activation biomarkers,diet-induced NASH; Kupffer cells and/or myeloid-derived precursors from the liver,Decreased expression
same,inflammation and fibrosis in the liver,diet-induced NASH; intravenous,reduce inflammation and fibrosis in the liver
"CC(C)(COP(=O)(O)OP(=O)(O)OC[C@H]1O[C@@H](n2cnc3c(N)ncnc32)[C@H](O)[C@@H]1OP(=O)(O)O)[C@@H](O)C(=O)NCCC(=O)NCCS [CoA, [(2R,3S,4R,5R)-5-(6-aminopurin-9-yl)-4-hydroxy-3-phosphonooxy-oxolan-2-yl]methyl [hydroxy-[(3R)-3-hydroxy-2,2-dimethyl-4-oxo-4-[[3-oxo-3-(2-sulfanylethylamino)propyl]amino]butoxy]phosphoryl] hydrogen phosphate]",rescue of cell surface marker expression,"[1]; 200 μM etomoxir, varying CoA",concentration-dependent function of exogenously added CoA
same,reduction of CD206+/CD71+ cells upon etomoxir treatment,"[1]; 500 μM CoA with 200 μM etomoxir, IL-4",can be rescued
same,IL-4-induced expression of CD206 and CD71,[1]; [6],significantly increased
same,polarization,"[1]; CoA, absence of IL-4",no effect on polarization
same,etomoxir-induced reduction in CD206+/CD71+ cells,"[1]; LysM-Cre Cpt1a-/-, LysM-Cre Cpt2-/-, CD11c-Cre Cpt1a-/- BMDMs, 200 μM etomoxir, 500 μM CoA",could be rescued
same,intracellular free CoA levels,BMDMs [2]; 500 μM CoA with 200 μM etomoxir,could be restored
same,intracellular free CoA levels,BMDMs [2]; [6],significantly increased
same,healing time and resolution of injury,acute liver injury; intravenous,decrease healing time and improve the extent of resolution from the injury
same,expression of alternative liver macrophage activation biomarkers,acute liver injury; peritoneal macrophages and/or Kupffer cells,Increased expression
same,parasite burden and replication,Limonoids sigmodontis,reduce parasite burden and replication
same,basal respiration,"BMDMs [3]; CoA supplementation, BMDMs treated with excess etomoxir",did not alter basal respiration
same,oxygen consumption,BMDMs [3]; CoA with IL-4,does not enhance oxygen consumption
C=C(C)[C@H]1Cc2c(ccc3c2O[C@@H]2COc4cc(OC)c(OC)cc4[C@@H]2C3=O)O1 [rotenone],population of CD206+/CD71+ cells,[1]; oxidative phosphorylation inhibitors co-treated with IL-4,none of the inhibitors of ATP synthesis or the electron transport chain significantly lowered
same,"3H2O release from 9,10-3H-palmitate",LCFA oxidation in BMDMs,suppressed LCFA oxidation to levels in line with 200 μM etomoxir
same,ATP production from oxidative phosphorylation,BMDMs [4],limited ATP production from oxidative phosphorylation
same,overall rates of energy metabolism (ATP production),BMDMs [4],maintain overall rates of energy metabolism
same,respiration at 24 hr,"BMDMs [3]; 1.2 μM oligomycin, 200 nM rotenone, 200 nM antimycin A, 100 nM piericidin A, 5 μM CAT",strongly reduced respiration
same,"IL-4-induced expression of Relma, Ym1, Mgl2",[5]; electron transport chain inhibitors,failed to reduce
same,expression of Ym1 and Arg1,[5]; mitochondrial inhibitors,increased expression
